The term Kd denotes the constant that tells how readily two partners part at equilibrium.

SMILES strings stand for the structures. Where two headings read alike, the source gives them in different places. Non-standard residues stand in square brackets, D forms with d. Residues, ends and D or L forms follow the SMILES beside them. pY = N[C@@H](Cc1ccc(OP(=O)(O)O)cc1)C(=O)O

This note sets out measurements from PMC12521615, “Accurate affinity models for SH2 domains from peptide binding assays and free‐energy regression” (Protein Science : A Publication of the Protein Society, 2025).

This experiment addresses T1, Fyn SH2 domain (Homo sapiens, UniProt P06241).
T1 construct: The human SH2 domains from Fyn (142–248), Lyn (121–228); His6-SUMO (N, cleaved yes); host or cells: Escherichia coli C43(DE3) with BirA helper plasmid
Briefly: biochemical. It is filed as binding. The source says:
The human SH2 domains from Fyn (142–248), Lyn (121–228), Blk (116–222), and Yes (150–257) kinases were PCR‐amplified from plasmids encoding the full‐length proteins and cloned using the NEBuilder® HiFi DNA Assembly Master Mix (NEB) in a pET plasmid backbone that was PCR‐amplified with the primers pETXbaI_for and pETXhoI_rev (these and all other primers are defined in Table S7) from the pET‐His6‐SUMO‐Grb2(SH2), as reported before (Li et al., [2023]), thus adding an N‐terminal His6‐SUMO tag and a C‐terminal AviTag® for biotinylation. The SH2 plasmids are available via Addgene: pET28‐His6‐SUMO‐Fyn‐SH2‐AviTag (214202), pET28‐His6‐SUMO‐Blk‐SH2‐AviTag (214204), pET28‐His6‐SUMO‐Lyn‐SH2‐AviTag (214207), pET28‐His6‐SUMO‐Yes‐SH2‐AviTag (214208), and pET28‐His6‐SUMO‐cSrc‐SH2‐AviTag (214230). For expression and parallel biotinylating of the SH2 domain product, Escherichia coli C43(DE3) cells carrying a BirA encoding helper plasmid were transformed with the respective SH2 domain expression construct and plated to grow overnight at 37°C on a streptomycin and kanamycin (100 μg/mL both) LB‐agar plate. The colonies were collected in 10 mL of TB medium and used to inoculate 1 L of TB medium and grown at 37°C and 215 rpm. Upon reaching an OD600 of 0.5, the expression of the SH2 domains was induced by adding IPTG up to 0.5 mM and biotin up to 250 μM, and the expressing culture was incubated at 18°C for 16–18 h. After removing the medium through centrifugation, the cell pellets were snap‐frozen in liquid N2 and stored at −80°C until purification. To purify the biotinylated SH2 domains, the cell pellets were resuspended in lysis buffer (50 mM Tris, pH 7.5, 300 mM NaCl, 20 mM imidazole, 10% glycerol), supplementing them with 2 mM β‐mercaptoethanol and 1× protease inhibitor cocktail before lysis by sonication (Fisherbrand Sonic Dismembrator). The soluble fraction separated after centrifugation at 33,000 g was run on a HisTrap HP column (Cytiva), then washed with 10 CV of the lysis buffer followed by 10 CV of wash buffer (50 mM Tris, pH 7.5, 50 mM NaCl, 10 mM imidazole, 10% glycerol). Next, the protein was eluted with elution buffer (50 mM Tris, pH 7.5, 50 mM NaCl, 250 mM imidazole, 10% glycerol) directly onto a 5 mL HiTrap Q HP anion exchange column (Cytiva). The biotinylated SH2 domain was then eluted from the anion exchange column with an NaCl gradient (50 mM Tris, pH 7.5, 0.05–1 M NaCl, 1 mM TCEP‐HCl), and the His6‐SUMO tag was cleaved using 0.05 mg/mL Ulp1 protease. The biotinylated SH2 domain was then collected in a flowthrough after running the cleavage reaction over a HisTrap HP column. Finally, the biotinylated SH2 domain in the flowthrough was run on a HiLoad 16/600 Superdex 75 pg size exclusion column (Cytiva) in storage buffer (20 mM HEPES, pH 7.5, 150 mM NaCl, 10% glycerol). The purified biotinylated SH2 domains were aliquoted, snap‐frozen in liquid N2, and stored at −80°C.
Measured binding constants (K D) from competition mode fluorescence polarization experiments were obtained using the purified SH2 domains used for the selection and chosen sets of peptides with a phosphorylated tyrosine exactly as described previously (Li et al., [2023]). […] (c‐Src SH2 consensus) was used as the probe, and for the Grb2 SH2 domain, the fluorescently labeled peptide FITC‐Ahx‐FDDPS(pY)VNVQN (Ahx = 6‐aminohexanoic acid) from the Y177 phospho‐tyrosine site of BCR. Before performing the competition mode fluorescence polarization measurement, the K D of the probes for the respective SH2 domains was first measured in a direct mode of fluorescence polarization.

[1] abbreviates: Table S3, unpaired validation, competition fluorescence polarization, probe FITC-Ahx-GDG-pY-EEISPLLL-NH2 0.4 nM, [SH2] 4.12 nM, mean, read-out: Kd mean.

T1 sequence (P06241 142-248): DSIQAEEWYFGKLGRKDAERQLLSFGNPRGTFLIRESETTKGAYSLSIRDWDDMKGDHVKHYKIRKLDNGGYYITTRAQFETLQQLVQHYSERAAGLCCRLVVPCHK

For the molecule `CC[C@H](C)[C@H](NC(=O)[C@H](CC(C)C)NC(=O)[C@H](CO)NC(=O)[C@H](Cc1ccc(OP(=O)(O)O)cc1)NC(=O)[C@H](CCCNC(=N)N)NC(=O)[C@H](CCCNC(=N)N)NC(=O)[C@H](CCC(N)=O)NC(=O)[C@H](CC(=O)O)NC(=O)[C@H](CO)NC(=O)[C@H](CCC(N)=O)NC(C)=O)C(=O)N[C@@H](CC(=O)O)C(=O)N[C@@H](CCCNC(=N)N)C(=O)NCC(N)=O` [CLIP2 pY972] (Ac-QSDQRR[pY]SLIDRG-NH2), under setting [1], the Kd amounted to 78.5 nM. The same measure, in the same setting: under `CC[C@H](C)[C@H](NC(=O)CNC(=O)[C@H](CCC(=O)O)NC(=O)[C@@H](NC(=O)[C@H](CCC(N)=O)NC(C)=O)C(C)C)C(=O)NCC(=O)N[C@@H](Cc1ccc(OP(=O)(O)O)cc1)C(=O)N[C@@H](CC(=O)O)C(=O)N[C@@H](Cc1ccccc1)C(=O)N[C@H](C(=O)N1CCC[C@H]1C(=O)N[C@H](C(=O)NCC(N)=O)[C@@H](C)O)[C@@H](C)CC` [CBS pY308] (Ac-QVEGIG[pY]DFIPTG-NH2) stands 126 nM; under `CC(=O)N[C@@H](CCC(N)=O)C(=O)N[C@@H](CO)C(=O)N[C@@H](CC(C)C)C(=O)N[C@@H](CCC(=O)O)C(=O)N[C@@H](CCCCN)C(=O)N[C@@H](CO)C(=O)N[C@@H](Cc1ccc(OP(=O)(O)O)cc1)C(=O)N[C@@H](CCC(=O)O)C(=O)N[C@@H](CC(C)C)C(=O)N1CCC[C@H]1C(=O)N[C@@H](CC(=O)O)C(=O)NCC(=O)NCC(N)=O` [ACTB pY240] (Ac-QSLEKS[pY]ELPDGG-NH2), 159 nM. `CC[C@H](C)[C@H](NC(=O)CNC(=O)[C@H](CCC(=O)O)NC(=O)[C@@H](NC(=O)[C@H](CCC(N)=O)NC(C)=O)C(C)C)C(=O)N[C@@H](CO)C(=O)N[C@@H](Cc1ccc(OP(=O)(O)O)cc1)C(=O)N[C@@H](CC(=O)O)C(=O)N[C@@H](Cc1ccccc1)C(=O)N[C@H](C(=O)N1CCC[C@H]1C(=O)N[C@H](C(=O)NCC(N)=O)[C@@H](C)O)[C@@H](C)CC` [CBS pY308 G307S] (Ac-QVEGIS[pY]DFIPTG-NH2) gave a Kd of 185 nM.

With `CSCC[C@H](NC(=O)[C@H](CCC(N)=O)NC(C)=O)C(=O)N[C@@H](CCC(=O)O)C(=O)N[C@@H](CCCCN)C(=O)N[C@@H](Cc1c[nH]cn1)C(=O)N[C@H](C(=O)N[C@@H](Cc1ccc(OP(=O)(O)O)cc1)C(=O)N[C@@H](CCC(=O)O)C(=O)N[C@@H](CO)C(=O)N[C@H](C(=O)N[C@H](C(=O)N[C@@H](CCC(N)=O)C(=O)NCC(N)=O)[C@@H](C)O)C(C)C)C(C)C` [Syn-F-2] (Ac-QMEKHV[pY]ESVTQG-NH2), the Kd was 18.3 nM. Molecule `CC[C@H](C)[C@H](NC(=O)[C@@H]1CCCN1C(=O)[C@H](CCC(N)=O)NC(C)=O)C(=O)N[C@@H](Cc1ccccc1)C(=O)N[C@@H](CCC(=O)O)C(=O)NCC(=O)N[C@@H](Cc1ccc(OP(=O)(O)O)cc1)C(=O)N[C@@H](C)C(=O)N[C@@H](CC(C)C)C(=O)N1CCC[C@H]1C(=O)N[C@@H](Cc1c[nH]cn1)C(=O)N[C@@H](C)C(=O)NCC(N)=O` [ACTA1 pY171] (Ac-QPIFEG[pY]ALPHAG-NH2) yielded a Kd of 47.3 nM. Still for that read-out and setting: as for `CC(=O)N[C@@H](CCC(N)=O)C(=O)N[C@@H](CO)C(=O)N[C@@H](CC(C)C)C(=O)N[C@@H](CCC(=O)O)C(=O)N[C@@H](CCCCN)C(=O)N[C@@H](CO)C(=O)N[C@@H](Cc1ccc(OP(=O)(O)O)cc1)C(=O)N[C@@H](CCC(=O)O)C(=O)N[C@@H](CC(C)C)C(=O)N[C@@H](CC(C)C)C(=O)N[C@@H](CC(=O)O)C(=O)NCC(=O)NCC(N)=O` [ACTB pY240 P243L] (Ac-QSLEKS[pY]ELLDGG-NH2), the figure is 141 nM.

For the molecule `CC[C@H](C)[C@H](NC(=O)[C@H](CC(C)C)NC(=O)[C@H](CO)NC(=O)[C@H](Cc1ccc(OP(=O)(O)O)cc1)NC(=O)[C@H](CCCNC(=N)N)NC(=O)[C@H](CCCNC(=N)N)NC(=O)[C@H](CCC(N)=O)NC(=O)[C@H](CC(=O)O)NC(=O)[C@H](CO)NC(=O)[C@H](CCC(N)=O)NC(C)=O)C(=O)N[C@@H](CC(=O)O)C(=O)N1CCC[C@H]1C(=O)NCC(N)=O` [CLIP2 pY972 R977P] (Ac-QSDQRR[pY]SLIDPG-NH2), the dissociation constant Kd under setting [1] stood at 27 nM. `CC(=O)N[C@@H](CCC(N)=O)C(=O)N[C@@H](CC(C)C)C(=O)N[C@@H](Cc1c[nH]cn1)C(=O)N[C@H](C(=O)N[C@@H](Cc1c[nH]cn1)C(=O)N1CCC[C@H]1C(=O)N[C@@H](Cc1ccc(OP(=O)(O)O)cc1)C(=O)N[C@@H](CCC(=O)O)C(=O)N[C@@H](CCCCN)C(=O)N[C@H](C(=O)N[C@@H](CCC(=O)O)C(=O)N[C@@H](CC(=O)O)C(=O)NCC(N)=O)C(C)C)C(C)C` [Syn-F-1] (Ac-QLHVHP[pY]EKVEDG-NH2): the Kd stood at 30.2 nM.
